Source: patent US20080199550A1, “Novel Anticancer Agent, Methods for Obtaining the Same and Pharmaceutical Compositions Thereof” (priority 2005, published 2008)
≈ marks a conversion by molar mass, not a printed value.

Key:
telomerase = biological target: T1, telomerase (Homo sapiens, UniProt O14746); test: Telo TAGGG Telomerase PCR ELISA; format: cell-based; conditions: MCF-7; 6.25 μg/ml; 48 and 72 hours
T1 construct: endogenous in cells; host or cells: MCF-7
Procedure: In the present study the telomerase activity of the cancer cell were assessed following the treatment with the samples with the help of Telomerase PCR ELISA (Roche, Germany). Cells were plated in a 24 well plate (2×10^5 cells per well) in DMEM supplemented with FBS (10%) and incubated for 48 hours and 72 hours in a humidified atmosphere with 95% air and 5% CO2 at 37° C. with (6.25 μg/ml) or with out (Control) the samples. Cells of the positive control group were treated with paclitaxel at 1.75 μg/ml and incubated as above. This experiment was done in human breast cancer cells (MCF-7). The cell pellets were washed with PBS and resuspended in lysis solution (200 μl) and the debris was pelleted and the supernatant was transferred to a fresh tube. The Telo TAGGG Telomerase PCR ELISA (Roche) was carried as per the manufacturer's protocol. The samples were added to a PCR amplification tube containing reaction mixture (Tris Buffer with telomerase substrate, nucleotides, Taq polymersase biotin labeled primer 1 and primer 2 specific to telomere fragment) and nuclease free water and allowed for elongation for 33 cycles in a Thermal Cycler (MJ Research, PTC 100). […] The reaction was stopped with the help of 1N H2SO4 and was read in an ELISA plate reader at a test wavelength of 450 nm and reference wavelength of 690 nm.

cancer cells = test: Cell proliferation assay, all the cell lines; format: cell-based
Procedure: (§1) For assaying the inhibitory effects of the samples on cell proliferation, cancer cells were seeded into a 96-well tissue culture plate at a cell density of 5×10^4 cells per well and incubated with plant extract at different concentrations for 24 hours in a humidified atmosphere containing 5% CO2 at 37° C. The viable and dead cell counts were performed as per trypan blue exclusion method and results were recorded.

MCF-7 [1] = test: Cell viability (MTT) assay; format: cell-based, human
Procedure: The screening of samples was done in human breast cancer cells (MCF-7, MDA-MB-468, ZR-75-1 and SK-Br-3), human liver carcinoma cells (HepG2), human colon adinocacinoma cells (Colo320 D-M), human acute promylocytic leukemia cells (HL-60), mouse sarcoma cells (Sarcoma 180), mouse melanoma cells (C57/B1/6J). Cells were maintained in DMEM, RPMI 1640(colo320-D-M and HL-60) and Mecoy's medium (SKBr-3) supplemented with 10% Fetal Calf Serum (FCS) and antibiotics (100 IU/ml of penicillin and 100 μg/ml of streptomycin) till they achieved 80% confluence in a humidified atmosphere containing 5% CO2 at 37° C. The cultures were passaged upon confluence on a regular basis. […] Morphological changes in the cells were recorded
It was performed after removal of the culture supernatants; MTT assay was performed to assess the viability of cells. […] The plates were read on a micro plate reader using a reference wavelength of 690 nm and a test wavelength of 540 nm.
For calculation of IC50 value, the data were analyzed by no leaner regression (Curve Fit) analysis using Graph Pad Prism version 4.00. The results of cell proliferation and other parameters were analyzed by one-way ANOVA with Bonferroni's Multiple Comparison Test.

MCF-7 [2] = test: DNA integrity assay (acredine orange, fluorescent microscope); format: cell-based, human; conditions: end of 48 h of incubation
Procedure: It was observed by direct visualization under fluorescent microscope. The cell pellets were treated with acredine orange (t 1:10 dilution) and directly visualized under fluorescent microscope under UV spectrum and the changes in the DNA were documented.

MCF-7 [3] = test: Cell proliferation assay (trypan blue exclusion); format: cell-based, human
Procedure: as §1

MDA cells = test: Cell proliferation assay (trypan blue exclusion); format: cell-based, human
Procedure: as §1

Colo-320 DM = test: Cell proliferation assay (trypan blue exclusion); format: cell-based, human
Procedure: as §1

HL-60 cells = test: Genomic DNA extraction / DNA fragmentation; format: cell-based, human; conditions: 7 ug/ml, 48 h
Procedure: For assessing the extent of damage to the cellular DNA following the HAC-1 treatment, the cells under investigation were seeded in 25 cm^2 tissue culture flasks at a cell density of 1×10^6 cells per flask and incubated for different time points in a humidified atmosphere containing 5% CO2 at 37° C. The cells after incubation with samples at 7 μg/ml for 24, 48 and 72 hours were pelleted, The cell pelleted were washed with the PBS and incubated in a shaking hot water bath at 37 C. for 1-2 hours with lysis buffer for mammalian DNA extraction. The lysate was then treated with 1.5 volumes of Isopropyl alcohol and the DNA pelleted by centrifuging at […] for 20 minutes The DNA was dissolved in Tris EDTA (TE pH 8.00) and was run on 2% agarose and the visualized with the help of a gel documentation system (Pharmacia) and recorded.

MCF-7 cells = test: Assay for influence of estrogen; format: cell-based, human; conditions: with or without estradiol, 24 h
Procedure: The efficacy of HAC-1 was studied to assess the hormone dependent or independent activity on cell proliferation. For this purpose MCF-7 cells were initially seeded in a 24 well plate with DMEM supplemented with 10% FCS and incubated for 24 hours in a humidified atmosphere with 5% CO2 and 95% air at 37° C. The cells were then shifted to charcoal striped medium supplemented with 1% bovine albumin serum (BSA,) with or with out the estradiol and HAC-1 and incubated further for a period of 24 h. After the incubation the cell population in each of the groups was recoded by trypan blue exclusion method.

S-180 cells = test: Sarcoma bearing mice; format: in vivo, mouse
Procedure: Adult, male age-matched Swiss albino mice (29-34 g) housed in groups of four to five in plastic cages, received laboratory rodent chow and tap water ad libitum 14 days prior to experimentation in a temperature controlled room with a 12-h dark/light cycle. S-180 cells maintained in the peritoneal cavity of male mice were used for testing the antitumour activity. The cell suspension was diluted to 1.18×10^8 cells/ml, and 0.1 ml of the suspension was inoculated intra-peritoneally into the mice. The tumour-bearing mice were treated, 24 hrs after inoculation, by i.p. injections of 10 and 20 mg/kg of HAC-01 (2 mg/ml with vehicle in physiological saline solution) at the dosage of 0.05 and 0.1 ml/10 gm b.wt. of mouse every other day for 14 days (Total 7 injections). The control group was treated with vehicle in 0.9% NaCl. The mice b.wt. was recorded at 0,4,8, 11,16,18,20,22 and 24th day.
All data were presented as mean ±SD. Statistical significance was evaluated by t test. P<0.05 is considered as statistically significant.
White blood cell (WBC) and differential leukocyte counts were measured from freely flowing tail vein blood of normal control, sarcoma control and HAC-01 treated groups.

[4] = test system: NMU induced breast tumours; test: N-nitroso-N-methylurea induced model of breast cancer in rats; format: in vivo, rat; conditions: 25 mg/kg po daily 3 weeks then 12.5 mg/kg i.p. twice a week 5 weeks, comparable to tamoxifen
Procedure: A standard protocol for induction of breast cancer in female Sprague-Dawley rats (7 to 8 weeks of age and weight range of 80-100 gms) with a single dose of N-nitroso-N-methylurea (NMU) was used for the study. The rats were obtained from animal facility, R & D center, The Himalaya Drug Company, Bangalore. They were maintained on standard pellet diet (Lipton India Ltd., Mumbai) and water ad libitum. Around 60 rats were selected and NMU was administered intraperitoneally at a dose of 50 mg/kg b.wt. NMU was dissolved in saline and pH adjusted to 4.8. Animals were observed daily to assess general health. […]
Three longest possible diameters were recorded, and tumour volume (cm^3) was calculated using the formula LX W X B.
The variations of the total surface areas of tumors between day 1 and day 57 were analyzed using a two-way ANOVA for repeated measurements. […]

T1 sequence (O14746 whole entry): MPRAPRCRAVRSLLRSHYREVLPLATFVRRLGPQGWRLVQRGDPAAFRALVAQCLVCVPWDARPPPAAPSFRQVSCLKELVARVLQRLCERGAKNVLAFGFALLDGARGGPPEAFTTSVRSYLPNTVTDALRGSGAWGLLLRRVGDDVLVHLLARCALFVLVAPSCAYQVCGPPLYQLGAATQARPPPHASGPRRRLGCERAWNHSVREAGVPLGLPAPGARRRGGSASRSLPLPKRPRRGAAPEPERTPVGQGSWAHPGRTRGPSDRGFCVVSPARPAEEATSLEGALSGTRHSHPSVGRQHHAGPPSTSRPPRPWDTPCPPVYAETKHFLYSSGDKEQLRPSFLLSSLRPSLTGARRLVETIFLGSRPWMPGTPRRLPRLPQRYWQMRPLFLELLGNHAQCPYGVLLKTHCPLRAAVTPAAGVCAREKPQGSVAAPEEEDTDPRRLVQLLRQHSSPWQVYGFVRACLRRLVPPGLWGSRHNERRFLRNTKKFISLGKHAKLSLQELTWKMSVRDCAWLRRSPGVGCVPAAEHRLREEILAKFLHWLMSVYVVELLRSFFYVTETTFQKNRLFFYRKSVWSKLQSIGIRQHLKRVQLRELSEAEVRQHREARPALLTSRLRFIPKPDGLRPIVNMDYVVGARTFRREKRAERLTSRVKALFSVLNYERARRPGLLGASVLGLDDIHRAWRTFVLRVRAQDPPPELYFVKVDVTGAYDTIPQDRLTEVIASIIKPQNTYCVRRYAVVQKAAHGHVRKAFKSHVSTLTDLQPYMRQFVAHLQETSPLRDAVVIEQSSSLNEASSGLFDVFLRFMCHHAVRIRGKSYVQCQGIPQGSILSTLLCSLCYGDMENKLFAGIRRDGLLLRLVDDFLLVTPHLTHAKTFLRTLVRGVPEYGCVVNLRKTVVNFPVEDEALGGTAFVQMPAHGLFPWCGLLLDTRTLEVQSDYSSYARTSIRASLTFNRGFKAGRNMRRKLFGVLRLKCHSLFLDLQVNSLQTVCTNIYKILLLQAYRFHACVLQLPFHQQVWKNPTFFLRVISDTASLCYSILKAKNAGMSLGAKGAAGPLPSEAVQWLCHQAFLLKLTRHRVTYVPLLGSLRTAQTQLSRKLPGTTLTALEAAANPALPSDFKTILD

SMILES	telomerase activity compared to control (telomerase)	cell proliferation compared to control (cancer cells; all the cell lines, p<0.001 and p<0.01)	IC50 (MCF-7 [1])	cells found apoptosed completely (MCF-7 [2])	effective concentration to induce 50% inhibition of proliferation (MCF-7 [3])	effective concentration to induce 50% inhibition of proliferation (MDA cells)	effective concentration to induce 50% inhibition of proliferation (Colo-320 DM)	apoptosis (DNA pattern) (HL-60 cells)	influence of estrogen on drug activity (MCF-7 cells)	differential count of WBC (neutrophils, lymphocytes) (S-180 cells; sarcoma bearing mice, 20 mg/kg, i.p.)	weight gain (S-180 cells; tumour bearing mice, i.p. 10 and 20 mg/kg every other day for 14 days)	tumor volume [4]	growth inhibition (cancer cells; at 1.75 μg/ml)
CC1=C2C3OC(=O)C(C)C3(O)CCC2(C)CCC1 (stereo not shown) [HAC-1, 7-hydroxyeudesm-4-en-6,12-olide]	inhibition in the telomarase activity	significantly inhibited	1.62 µg/mL (≈ 6.47 µM)	more than 80%	4 µg/mL	2 µg/mL	2 µg/mL	induced apoptosis	drug activity is independent of estrogen	restore these altered parameters to near normal	significantly reduced the weight gain	significantly reduced the tumor volume	–
CC(=O)O[C@H]1C(=O)[C@@]2(C)[C@H]([C@H](OC(=O)c3ccccc3)[C@]3(O)C[C@H](OC(=O)[C@H](O)[C@@H](NC(=O)c4ccccc4)c4ccccc4)C(C)=C1C3(C)C)[C@]1(OC(C)=O)CO[C@@H]1C[C@@H]2O [paclitaxel, reference compound]	–	–	–	–	–	–	–	–	–	–	–	–	marked growth inhibition
